{"source": "patent US20030118627A1", "about": "(DABUR RESEARCH FOUNDATION, priority 2001, published 2003)", "key": {"MOLT 4": {"test_system": "MOLT 4", "test": "MTT cytotoxicity assay, MOLT 4 leukemia", "format": "cell-based", "details": "Homo sapiens, MOLT 4 Leukemia, read-out: Percent cytotoxicity", "description": "(§1) Briefly, a […] MTT cytotoxicity assay was performed, which is based on the principle of uptake of MTT (3-(4,5-dimethylthiazol-2-yl)-2,5-diphenyl tetrazolium bromide), a tetrazolium salt, by the metabolically active cells where it is metabolized by active mitochondria into a blue colored formazan product that is read spectrophoto-metrically. MTT was dissolved in phosphate buffered saline with a pH of 7.4 to obtain an MTT concentration of 5 mg/ml; the resulting mixture was filtered through a 0.22 micron filter to sterilize and remove a small amount of insoluble residue. For each type of tumor cell, 20,000 to 50,000 cells were seeded in a 96-well culture plate and incubated with the combination in a CO2 incubator for 24 hours. […] The assay was terminated after 24 hours by adding 100 ug (20 ul) of MTT to each well, then incubating for additional one hour, and finally adding 50 ul of 10% SDS-0.01N HCl to each well to lyse the cells and dissolve formazan. After incubating for one hour, the plate was read spectrophotometrically at 540 nm and the percentage cytotoxicity calculated."}, "PA 1": {"test_system": "PA 1", "test": "MTT cytotoxicity assay, PA 1 ovary", "format": "cell-based", "details": "Homo sapiens", "description": "as §1"}, "PTC": {"test_system": "PTC", "test": "MTT cytotoxicity assay, PTC colon", "format": "cell-based", "details": "Homo sapiens, read-out: Percent cytotoxicity", "description": "as §1"}, "Miapaca2": {"test_system": "Miapaca2", "test": "MTT cytotoxicity assay, Miapaca2 pancreas", "format": "cell-based", "details": "Homo sapiens, read-out: Percent cytotoxicity", "description": "as §1"}, "DU145": {"test_system": "DU145", "test": "MTT cytotoxicity assay, DU145 prostate", "format": "cell-based", "details": "Homo sapiens, read-out: Percent cytotoxicity", "description": "as §1"}, "L132": {"test_system": "L132", "test": "MTT cytotoxicity assay, L132 lung", "format": "cell-based", "details": "Homo sapiens, read-out: Percent cytotoxicity", "description": "as §1"}, "MCF7": {"test_system": "MCF7", "test": "MTT cytotoxicity assay, MCF7 breast", "format": "cell-based", "details": "Homo sapiens, MCF7 breast, read-out: Percent cytotoxicity", "description": "as §1"}, "293": {"test_system": "293", "test": "MTT cytotoxicity assay, 293 kidney", "format": "cell-based", "details": "Homo sapiens, HEK293, 24 h, read-out: ED50 values of cytotoxicity", "description": "as §1"}, "Swiss albino mice": {"test_system": "Swiss albino mice", "details": "both, mouse, in vivo, po, 15 days", "description": "Acute toxicity studies were performed using the oral route of administration.\nA batch of 5 female and 5 male mice each was administered the test substance by oral route. […] Another batch of 5 female and 5 male served as control.\nObservations were made three times on the day of dosing and twice daily thereafter for the remainder of 14 days or until reversible toxic signs or symptoms subsided. All gross visible toxic signs and symptoms were recorded. Body weights were recorded prior to dosing and weekly thereafter."}}, "data": [{"smiles": "CCOC(=O)C1CCC(=O)N1C(OC(C)=O)C(C)=O", "note": "(centres unmarked) [MGC-8]", "values": [{"measurement": "cytotoxicity at 1000 µM", "setting": "MOLT 4; 1.0 mM", "value": "40.3 ± 2.9", "unit": "%"}, {"measurement": "cytotoxicity at 2500 µM", "setting": "MOLT 4; 2.5 mM", "value": "58.3 ± 4.9", "unit": "%"}, {"measurement": "cytotoxicity at 4000 µM", "setting": "MOLT 4; 4 mM", "value": "65 ± 5.9", "unit": "%"}, {"measurement": "cytotoxicity at 5000 µM", "setting": "MOLT 4; 5 mM", "value": "75.2 ± 2.9", "unit": "%"}, {"measurement": "cytotoxicity at 10000 µM", "setting": "MOLT 4; 10 mM", "value": "81.9 ± 5.2", "unit": "%"}, {"measurement": "IC50", "setting": "PA 1; 24 h, PA 1 Ovarian, read-out: ED50 values of cytotoxicity", "value": "1800 ± 700", "unit": "µM"}, {"measurement": "cytotoxicity at 1000 µM", "setting": "PA 1; PA 1 Ovary, 1.0 mM, read-out: Percent cytotoxicity", "value": "38 ± 3.7", "unit": "%"}, {"measurement": "cytotoxicity at 2500 µM", "setting": "PA 1; PA 1 Ovary, 2.5 mM, read-out: Percent cytotoxicity", "value": "56 ± 4.8", "unit": "%"}, {"measurement": "cytotoxicity at 4000 µM", "setting": "PA 1; PA 1 Ovary, 4 mM, read-out: Percent cytotoxicity", "value": "64.5 ± 5.3", "unit": "%"}, {"measurement": "cytotoxicity at 5000 µM", "setting": "PA 1; PA 1 Ovary, 5 mM, read-out: Percent cytotoxicity", "value": "69 ± 2.1", "unit": "%"}, {"measurement": "cytotoxicity at 10000 µM", "setting": "PA 1; PA 1 Ovary, 10 mM, read-out: Percent cytotoxicity", "value": "71.7 ± 6.3", "unit": "%"}, {"measurement": "cytotoxicity at 1000 µM", "setting": "PTC; 1.0 mM", "value": "32.2 ± 3.9", "unit": "%"}, {"measurement": "cytotoxicity at 2500 µM", "setting": "PTC; 2.5 mM", "value": "48.6 ± 2.9", "unit": "%"}, {"measurement": "cytotoxicity at 4000 µM", "setting": "PTC; 4 mM", "value": "67.7 ± 4.8", "unit": "%"}, {"measurement": "cytotoxicity at 5000 µM", "setting": "PTC; 5 mM", "value": "76.3 ± 1", "unit": "%"}, {"measurement": "cytotoxicity at 10000 µM", "setting": "PTC; 10 mM", "value": "79.6 ± 3", "unit": "%"}, {"measurement": "cytotoxicity at 1000 µM", "setting": "Miapaca2; MIA PaCa-2, 1.0 mM", "value": 0, "unit": "%"}, {"measurement": "cytotoxicity at 2500 µM", "setting": "Miapaca2; MIA PaCa-2, 2.5 mM", "value": "61 ± 2.5", "unit": "%"}, {"measurement": "cytotoxicity at 4000 µM", "setting": "Miapaca2; MIA PaCa-2, 4 mM", "value": "89 ± 4.5", "unit": "%"}, {"measurement": "cytotoxicity at 5000 µM", "setting": "Miapaca2; MIA PaCa-2, 5 mM", "value": "88 ± 4.5", "unit": "%"}, {"measurement": "cytotoxicity at 10000 µM", "setting": "Miapaca2; MIA PaCa-2, 10 mM", "value": "86 ± 5", "unit": "%"}, {"measurement": "cytotoxicity at 1000 µM", "setting": "DU145; DU-145, 1.0 mM", "value": "43 ± 3.8", "unit": "%"}, {"measurement": "cytotoxicity at 2500 µM", "setting": "DU145; DU-145, 2.5 mM", "value": "67.4 ± 5.2", "unit": "%"}, {"measurement": "cytotoxicity at 4000 µM", "setting": "DU145; DU-145, 4 mM", "value": "69.9 ± 7.9", "unit": "%"}, {"measurement": "cytotoxicity at 5000 µM", "setting": "DU145; DU-145, 5 mM", "value": "73.5 ± 3", "unit": "%"}, {"measurement": "cytotoxicity at 10000 µM", "setting": "DU145; DU-145, 10 mM", "value": "79.3 ± 1.9", "unit": "%"}, {"measurement": "cytotoxicity at 1000 µM", "setting": "L132; 1.0 mM", "value": "8 ± 1.5", "unit": "%"}, {"measurement": "cytotoxicity at 2500 µM", "setting": "L132; 2.5 mM", "value": "12 ± 3.3", "unit": "%"}, {"measurement": "cytotoxicity at 4000 µM", "setting": "L132; 4 mM", "value": "25 ± 3.5", "unit": "%"}, {"measurement": "cytotoxicity at 5000 µM", "setting": "L132; 5 mM", "value": "35 ± 4.1", "unit": "%"}, {"measurement": "cytotoxicity at 10000 µM", "setting": "L132; 10 mM", "value": "45 ± 5.1", "unit": "%"}, {"measurement": "cytotoxicity at 1000 µM", "setting": "MCF7; 1.0 mM", "value": "16 ± 4.1", "unit": "%"}, {"measurement": "cytotoxicity at 2500 µM", "setting": "MCF7; 2.5 mM", "value": "36 ± 3.5", "unit": "%"}, {"measurement": "cytotoxicity at 4000 µM", "setting": "MCF7; 4 mM", "value": "70 ± 4.5", "unit": "%"}, {"measurement": "cytotoxicity at 5000 µM", "setting": "MCF7; 5 mM", "value": "73 ± 6", "unit": "%"}, {"measurement": "cytotoxicity at 10000 µM", "setting": "MCF7; 10 mM", "value": "87 ± 7", "unit": "%"}, {"measurement": "IC50", "setting": "293", "value": "2900 ± 500", "unit": "µM"}, {"measurement": "safe dose", "setting": "Swiss albino mice", "value": 100, "unit": "mg"}]}]}
